We go through 9 compounds from paper PMC11243625, “Synthesis, Docking, and Machine Learning Studies of Some Novel Quinolinesulfonamides–Triazole Hybrids with Anticancer Activity” (Molecules, 2024).

One data set concerns SNB-19. As to the kind of experiment: WST-1 test, glioblastoma cells. The class given is cell-based, human. On the procedure:
(§1) Hybrids 4–14 were tested as anticancer agents against four human cancer cell lines: colon cancer (Caco-2), glioblastoma (SNB-19), lung cancer (A549), ovarian cancer (SKOV-3), and normal human dermal fibroblasts (NHDFs). Cisplatin was used as the reference substance. The results are presented as the compound concentration of the compound (μM) that inhibits the growth of 50% of cancer cells compared to control cells (IC50). A negative value (Neg) means that the compound concentration of the tested hybrids was greater than 500 µM. […] It is generated only by a weak van der Waals interaction with Arg84. […] There is also a visible difference in activity depending on the type of group present on the triazole ring (substituent C in Figure 2). The results obtained indicate that hybrids containing aromatic systems as a C substituent in their structure, especially another quinoline molecule (compounds 9 and 10), have high activity.
(§2) Cell cultures were performed in 96-well plates (Nunc Thermo Fisher Scientific, Waltham, MA, USA). Cells were seeded at 5 × 10^4/well and incubated for 24 h (at 37 °C, 5% CO2, and constant humidity). The medium was replaced with fresh with the addition of test compounds at a concentration of 0.1–100 µg/mL of DMSO and incubated again for another 72 h. After this time, the WST-1 test (Roche Molecular Biochemicals, Mannheim, Germany) was performed to assess the metabolic activity of the cells. Absorbance was measured at λ = 450 nm using a UVM340 microplate reader (Biogenet, Józefów, Poland). Results are expressed as the mean value of at least three independent experiments performed in triplicate.

A further data set concerns A549. As to the kind of experiment: WST-1 test, lung cancer cells. The note with it: for IC50: read-out: IC50 A-549. The class given is cell-based, human. On the procedure:
as §1, §2
Background: Tetrazolium assays rely on reduction of a dye to a coloured formazan, in cell work by metabolically active cells.

Another data set has as its system SKOV-3. As to the kind of experiment: WST-1 test, ovarian cancer cells. The class given is cell-based, human. On the procedure: as §1, §2
A further data set has as its system NHDF. The experiment in a line: WST-1 test, normal human dermal fibroblasts. The class given is cell-based. The conditions noted are these: 72 h, WST-1, normal cells. How it is done: as §1, §2
A further data set relates to Caco-2. As to the kind of experiment: WST-1 test, colon cancer cells. The class given is cell-based, human. The conditions noted are these: Homo sapiens, Caco-2, 72 h. On the procedure:
Hybrids 4–14 were tested as anticancer agents against four human cancer cell lines: colon cancer (Caco-2), glioblastoma (SNB-19), lung cancer (A549), ovarian cancer (SKOV-3), and normal human dermal fibroblasts (NHDFs).
as §2

SMILES strings stand for the structures. Read-outs that look alike come from different tables or passages of the source. Where only a bound is given, the exact number is not on record here.

A word on the IC50: it is the point on the concentration scale where inhibition reaches its midpoint. As for `N.N.[Cl][Pt][Cl]` [Cisplatin, reference compound], the IC50 in the data set on SNB-19 (72 h) was 2.93 µM; in the data set on A549 (72 h) it was 453 µM; with SKOV-3 (72 h), 41.6 µM; in the data set with NHDF it was greater than 500 µM.

Usually melting point stands for the temperature, or range, at which the solid turns liquid. As to `O=S(=O)(NCc1cn(Cc2ccccc2)nn1)c1cccc2cccnc12` [Compound 4a, 8-N-[(1-Benzyl-1H-1,2,3-triazol-4-yl)methyl]quinolinesulfonamide], the melting point is 125 to 126 °C. In the data set with Caco-2, this compound registered an IC50 of 26.4 µM. The same compound registered an IC50 in the data set on SNB-19 (Homo sapiens, SNB-19, 72 h) greater than 500 µM. In addition, the IC50 in the data set on A549 (Homo sapiens, A549, 72 h) is greater than 500 µM. This compound displayed an IC50 with SKOV-3 (Homo sapiens, SK-OV-3, 72 h) greater than 500 µM. For the same compound, the IC50 in the data set with NHDF (Homo sapiens, NHDF) was greater than 500 µM.

Compound `CN(Cc1cn(Cc2ccccc2)nn1)S(=O)(=O)c1cccc2cccnc12` [Compound 4b, 8-N-Methyl-N-[(1-benzyl-1H-1,2,3-triazol-4-yl)methyl]quinolinesulfonamide] returned a melting point of 103 to 105 °C. Further, half-maximal inhibition in the data set with Caco-2 (IC50) was put at 0.4 µM. Moreover, the IC50 with SNB-19 (Homo sapiens, SNB-19, 72 h) was 1.18 µM. Further, in the data set on A549 (Homo sapiens, A549, 72 h), the IC50 is 7.72 µM. This compound registered an IC50 with SKOV-3 (Homo sapiens, SK-OV-3, 72 h) of 66.2 µM. In the data set on NHDF (Homo sapiens, NHDF), inhibition was half-maximal at 191 µM (IC50).

In the case of `N#Cc1ccc(Cn2cc(CNS(=O)(=O)c3cccc4cccnc34)nn2)cc1` [Compound 5a, 8-N-{[1-(4-Cyanobenzyl)-1H-1,2,3-triazol-4-yl]methyl}quinolinesulfonamide], the melting point was 110 to 111 °C. The same compound came in with an IC50 with Caco-2 of 2.21 µM. In the data set on SNB-19 (Homo sapiens, SNB-19, 72 h), the IC50 was greater than 500 µM. In addition, in the data set with A549 (Homo sapiens, A549, 72 h), the IC50 was greater than 500 µM. Moreover, the IC50 with SKOV-3 (Homo sapiens, SK-OV-3, 72 h) was greater than 500 µM. This compound also returned an IC50 in the data set on NHDF (Homo sapiens, NHDF) greater than 500 µM.

With `CN(Cc1cn(Cc2ccc(C#N)cc2)nn1)S(=O)(=O)c1cccc2cccnc12` [Compound 5b, 8-N-Methyl-N-{[1-(4-cyanobenzyl)-1H-1,2,3-triazol-4-yl]methyl}quinolinesulfonamide], the melting point is 112 to 113 °C. In the data set on Caco-2, this compound returned an IC50 of 0.4 µM. Moreover, the IC50 with SNB-19 (Homo sapiens, SNB-19, 72 h) was determined as 0.41 µM. Also, the “IC50 A-549” value in the data set on A549 (72 h) is “nanomolar concentration range”. In addition, the IC50 in the data set with A549 (Homo sapiens, A549, 72 h) was 0.8 µM. Moreover, in the data set with SKOV-3 (Homo sapiens, SK-OV-3, 72 h), the IC50 was 14.1 µM. The “IC50 NHDF” value in the data set with NHDF is given as “have activity against normal cells”. This compound also gave an IC50 in the data set on NHDF (Homo sapiens, NHDF) of 9.16 µM.

In turn, `O=S(=O)(NCc1cn(Cc2ccc(F)cc2)nn1)c1cccc2cccnc12` [Compound 6a, 8-N-{[1-(4-Fluorobenzyl)-1H-1,2,3-triazol-4-yl]methyl}quinolinesulfonamide] returned a melting point of 118 to 119 °C. In the data set with Caco-2, this compound had an IC50 of 27.5 µM. In the data set on SNB-19 (Homo sapiens, SNB-19, 72 h), this compound returned an IC50 greater than 500 µM. Moreover, the IC50 in the data set with A549 (Homo sapiens, A549, 72 h) is greater than 500 µM. The same compound showed an IC50 in the data set on SKOV-3 (Homo sapiens, SK-OV-3, 72 h) greater than 500 µM. This compound had an IC50 in the data set with NHDF (Homo sapiens, NHDF) greater than 500 µM.

For the compound `CN(Cc1cn(Cc2ccc(F)cc2)nn1)S(=O)(=O)c1cccc2cccnc12` [Compound 6b, 8-N-Methyl-N-{[1-(4-fluorobenzyl)-1H-1,2,3-triazol-4-yl]methyl}quinolinesulfonamide], the melting point fell in the range of 85 to 86 °C. The compound further came in with an IC50 in the data set on Caco-2 of 19.3 µM. Further, in the data set on SNB-19 (Homo sapiens, SNB-19, 72 h), the IC50 is 156 µM. Moreover, the IC50 in the data set with A549 (Homo sapiens, A549, 72 h) was greater than 500 µM. In the data set on SKOV-3 (Homo sapiens, SK-OV-3, 72 h), this compound returned an IC50 greater than 500 µM. The compound also had an IC50 in the data set with NHDF (Homo sapiens, NHDF) greater than 500 µM.

For the compound `O=[N+]([O-])c1ccc(Cn2cc(CNS(=O)(=O)c3cccc4cccnc34)nn2)cc1` [Compound 7a, 8-N-{[1-(4-Nitrobenzyl)-1H-1,2,3-triazol-4-yl]methyl}quinolinesulfonamide], the melting point was 135 to 136 °C. In the data set with Caco-2, this compound showed an IC50 of 0.31 µM. In the data set with SNB-19 (Homo sapiens, SNB-19, 72 h), the IC50 turned out to be 0.83 µM. Also, the IC50 in the data set with A549 (Homo sapiens, A549, 72 h) stood at 36.1 µM. Besides, the IC50 in the data set on SKOV-3 (Homo sapiens, SK-OV-3, 72 h) came out at 16.9 µM. Further, the IC50 in the data set on NHDF (Homo sapiens, NHDF) worked out at 169 µM.

Regarding `CCOC(=O)CCn1cc(CN(C)S(=O)(=O)c2cccc3cccnc23)nn1` [Compound 13b, Ethyl 3-{[4-(N-methylsulfamoyl-8-quinolyl)methyl]-1H-1,2,3-triazol-1-yl}propanoate], the IC50 was 85.2 µM in the data set on Caco-2; 138 µM in the data set with SNB-19 (Homo sapiens, SNB-19, 72 h); greater than 500 µM in the data set with A549 (Homo sapiens, A549, 72 h); 88.2 µM with SKOV-3 (Homo sapiens, SK-OV-3, 72 h); greater than 500 µM in the data set on NHDF (Homo sapiens, NHDF).
